The record followed here is ChEMBL document CHEMBL1126992, “The synthesis and biochemical evaluation of new A1 selective adenosine receptor agonists containing 6-hydrazinopurine moieties” (Bioorg Med Chem Lett, 1993).

For one data set, the target named is Adenosine A2 receptor (Rattus norvegicus, UniProt P29276+P30543). As to the kind of experiment: Tested for inhibition of adenosine A2 receptor binding to rat brain.
The target of another data set is T1, Adenosine receptor A1 (Rattus norvegicus, UniProt P25099).
T1 sequence (P25099 whole entry): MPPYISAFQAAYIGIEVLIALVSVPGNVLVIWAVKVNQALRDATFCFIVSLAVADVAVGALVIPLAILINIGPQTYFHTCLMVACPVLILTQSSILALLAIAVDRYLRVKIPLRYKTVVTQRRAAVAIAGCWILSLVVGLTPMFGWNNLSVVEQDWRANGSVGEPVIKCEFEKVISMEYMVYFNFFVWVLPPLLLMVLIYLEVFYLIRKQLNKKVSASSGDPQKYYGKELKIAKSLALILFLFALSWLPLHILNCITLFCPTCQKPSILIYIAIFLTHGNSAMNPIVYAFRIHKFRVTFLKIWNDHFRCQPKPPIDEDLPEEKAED
As to the kind of experiment: Tested for inhibition of adenosine A1 receptor binding to rat brain.

The nature of data set [1]: Partition coefficient (logP). The class given is physicochemical. The settings on record: octanol/water.
The species entered for data set [2] is Cavia porcellus. The data set can be described thus: Tested for agonistic potency to inhibit contractile force in isolated guinea pig atria. The class given is functional.
The species named for data set [3] is Cavia porcellus. The data set can be described thus: Tested for agonistic potency to inhibit stimulated cAMP accumulation in isolated guinea pig heart. It counts as functional. For orientation: cAMP levels reflect the balance of adenylyl cyclase and phosphodiesterase activity.

As usually defined, the Ki is a measure of affinity in units of concentration, obtained from inhibition or displacement. As to `CCCOc1nc(NN2CCCCC2)c2ncn([C@@H]3O[C@H](CO)[C@@H](O)[C@H]3O)c2n1`, the values for the Ki at Adenosine A2 receptor and on Adenosine receptor A1 were 2700 nM and 400 nM, respectively.
By logP is commonly meant a log measure of how a compound divides between an organic and an aqueous phase. A high value points to a more lipophilic compound. With `OC[C@H]1O[C@@H](n2cnc3c(NN4CCCCC4c4ccccc4)nc(Cl)nc32)[C@H](O)[C@@H]1O` (stereo partly drawn), the logP in data set [1] is 2.25. The Ki was found to be 17 nM on Adenosine A2 receptor and 34 nM on Adenosine receptor A1.
Taken in the same sequence, the figures for `OC[C@H]1O[C@@H](n2cnc3c(NN4CCCC4)nc(I)nc32)[C@H](O)[C@@H]1O` were 1.42, 57000 nM and 13000 nM.
The IC50 is the point on the concentration scale where inhibition reaches its midpoint. High values mean weaker potency, low ones greater potency. The compound `OC[C@H]1O[C@@H](n2cnc3c(NN4CC=C(c5ccccc5)CC4)nc(Cl)nc32)[C@H](O)[C@@H]1O` gave a logP in data set [1] of 2.28. For the same compound, the IC50 in the data set filed under Cavia porcellus [2] was determined as 2900 nM; in the data set listed under Cavia porcellus [3], 1.1 nM. Further, the Ki was 638 nM at Adenosine A2 receptor and 6.1 nM at Adenosine receptor A1.
In data set [1], `OC[C@H]1O[C@@H](n2cnc3c(NN4CCC(c5ccccc5)CC4)nc(Cl)nc32)[C@H](O)[C@@H]1O` came in with a logP of 2.36. Moreover, the half-maximal inhibitory concentration (IC50) in the data set listed under Cavia porcellus [2] was 320 nM; in the data set listed under Cavia porcellus [3] it was 2.5 nM. Also, the Ki at Adenosine A2 receptor was 1200 nM; at Adenosine receptor A1, 11 nM.
In data set [1], `OC[C@H]1O[C@@H](n2cnc3c(NN4CCC(Sc5ccccc5)CC4)nc(Cl)nc32)[C@H](O)[C@@H]1O` yielded a logP of 2.62. The IC50 in the data set filed under Cavia porcellus [2] turned out to be 640 nM; in the data set listed under Cavia porcellus [3] it was 0.3 nM. The Ki on Adenosine A2 receptor is 470 nM; at Adenosine receptor A1, 0.9 nM.
On to `Nc1nc(NN2CCCCC2)c2ncn([C@@H]3O[C@H](CO)[C@@H](O)[C@H]3O)c2n1`, for which the logP in data set [1] is -0.55. Further, the Ki worked out at 3320 nM on Adenosine A2 receptor and 30 nM at Adenosine receptor A1.
In the same order, the values of `OC[C@H]1O[C@@H](n2cnc3c(NN4CCCCC4)ncnc32)[C@H](O)[C@@H]1O` are 1.28, above 10000 nM and above 3000 nM.
In the same order, the values of `COC[C@@H]1CCCN1Nc1nc(Cl)nc2c1ncn2[C@@H]1O[C@H](CO)[C@@H](O)[C@H]1O` are 0.32, 564 nM and 9.9 nM.
Taken in the same sequence, the figures for `OC[C@H]1O[C@@H](n2cnc3c(NN4CCCCC4)nc(Br)nc32)[C@H](O)[C@@H]1O` were 0.89, 1520 nM and 9.3 nM.
`OC[C@H]1O[C@@H](n2cnc3c(NC4CCCC4)ncnc32)[C@H](O)[C@@H]1O` [N6-CYCLOPENTYLADENOSINE] registered a logP in data set [1] of 0.72. For the same compound, the IC50 in the data set filed under Cavia porcellus [2] was 420 nM; in the data set filed under Cavia porcellus [3], 0.6 nM. This compound also gave a Ki on Adenosine A2 receptor of 321 nM.
In data set [1], `CSc1nc(NN2CCCCC2)c2ncn([C@@H]3O[C@H](CO)[C@@H](O)[C@H]3O)c2n1` showed a logP of 0.89. Moreover, the Ki at Adenosine A2 receptor came to 2825 nM; at Adenosine receptor A1, 390 nM.
The compound `COC[C@H]1CCCN1Nc1nc(Cl)nc2c1ncn2[C@@H]1O[C@H](CO)[C@@H](O)[C@H]1O` displayed a logP in data set [1] of 0.32. For the same compound, the Ki stood at 459 nM on Adenosine A2 receptor and 10.9 nM on Adenosine receptor A1.
Take `O=S(=O)(c1ccccc1)C1CCN(Nc2nc(Cl)nc3c2ncn3[C@@H]2O[C@H](CO)[C@@H](O)[C@H]2O)CC1`: the results for the IC50 in the data set filed under Cavia porcellus [2] and in the data set listed under Cavia porcellus [3] were 320 nM and 0.7 nM, respectively. Further, the figures for the Ki at Adenosine A2 receptor and at Adenosine receptor A1 were 220 nM and 17 nM, respectively.
On to `OC[C@H]1O[C@@H](n2cnc3c(NN4CCN(c5ccccc5)CC4)nc(Cl)nc32)[C@H](O)[C@@H]1O`, for which the logP in data set [1] was 1.42. The Ki turned out to be 5571 nM at Adenosine A2 receptor and 55 nM on Adenosine receptor A1.
Compound `CN1CCN(Nc2nc(Cl)nc3c2ncn3[C@@H]2O[C@H](CO)[C@@H](O)[C@H]2O)CC1` came in with a logP in data set [1] of 0.11. For the same compound, the figures for the Ki on Adenosine A2 receptor and at Adenosine receptor A1 were above 30000 nM and 184 nM, respectively.
In turn, `OC[C@H]1O[C@@H](n2cnc3c(NN4CCCCCC4)nc(Cl)nc32)[C@H](O)[C@@H]1O` registered a log partition coefficient (logP) in data set [1] of 1.42. Also, the Ki was 1130 nM at Adenosine A2 receptor and 9.3 nM at Adenosine receptor A1.
In data set [1], `OC[C@H]1O[C@@H](n2cnc3c(NC4CCCC4)nc(Cl)nc32)[C@H](O)[C@@H]1O` returned a lipophilicity (logP) of 2.07.
The compound `OC[C@H]1O[C@@H](n2cnc3c(NN4CCCCC4)nc(Cl)nc32)[C@H](O)[C@@H]1O` yielded a logP in data set [1] of 0.79. In addition, the IC50 in the data set listed under Cavia porcellus [2] was 580 nM; in the data set listed under Cavia porcellus [3] it was 2.1 nM. Moreover, the results for the Ki at Adenosine A2 receptor and at Adenosine receptor A1 were 1485 nM and 4.2 nM, respectively.
In the same order, the values of `OC[C@H]1O[C@@H](n2cnc3c(NN4CCCCC4)nc(F)nc32)[C@H](O)[C@@H]1O` are 0.35, 1290 nM, 3.8 nM, 1050 nM and 3.6 nM.
Take `OC[C@H]1O[C@@H](n2cnc3c(NN4CCCC(O)C4)nc(Cl)nc32)[C@H](O)[C@@H]1O` (mixture of isomers): the logP in data set [1] was -0.82. The half-inhibitory concentration (IC50) in the data set filed under Cavia porcellus [2] was 470 nM; in the data set listed under Cavia porcellus [3] it was 4.6 nM. For the same compound, the Ki was determined as 720 nM at Adenosine A2 receptor and 11 nM on Adenosine receptor A1.
Take `OC[C@H]1O[C@@H](n2cnc3c(NN4CCOCC4)nc(Cl)nc32)[C@H](O)[C@@H]1O`: the logP in data set [1] turned out to be 0.11. Also, the Ki was 1040 nM on Adenosine A2 receptor and 13.3 nM at Adenosine receptor A1.
Turning to `OC[C@H]1O[C@@H](n2cnc3c(NN4CCC(Oc5ccccc5)CC4)nc(Cl)nc32)[C@H](O)[C@@H]1O`, the log partition coefficient (logP) in data set [1] stood at 2.05. Besides, the results for the IC50 in the data set filed under Cavia porcellus [2] and in the data set filed under Cavia porcellus [3] were 190 nM and 0.03 nM, respectively. In addition, the Ki at Adenosine A2 receptor turned out to be 1100 nM; at Adenosine receptor A1, 1.4 nM.
In data set [1], `CC1CCCC(C)N1Nc1nc(Cl)nc2c1ncn2[C@@H]1O[C@H](CO)[C@@H](O)[C@H]1O` (stereo partly drawn) displayed a logP of 1.38. In addition, the results for the Ki at Adenosine A2 receptor and at Adenosine receptor A1 were 33 nM and 4 nM, respectively.
In turn, `OC[C@H]1O[C@@H](n2cnc3c(NN4CCCC(Oc5ccccc5)C4)nc(Cl)nc32)[C@H](O)[C@@H]1O` (mixture of isomers) displayed a logP in data set [1] of 1.88. The IC50 in the data set listed under Cavia porcellus [2] came to 4500 nM; in the data set filed under Cavia porcellus [3], 4.8 nM. Besides, the inhibition constant (Ki) at Adenosine A2 receptor came to 1733 nM; on Adenosine receptor A1 it was 15 nM.
Turning to `OC[C@H]1O[C@@H](n2cnc3c(NN4CCCC(Sc5ccccc5)C4)nc(Cl)nc32)[C@H](O)[C@@H]1O` (mixture of isomers), the lipophilicity (logP) in data set [1] came to 2.89. Also, the Ki stood at 1380 nM at Adenosine A2 receptor and 13 nM at Adenosine receptor A1.
